Experiments:
physchem = conditions: DMSO/water=7/3 solvent system
[1] = solubility in 1.5 mol/liter aqueous NaOH at 55° C. (visual); conditions: 1.5 mol/liter NaOH at 55° C., visual observation

pKa (physchem) | Solubility [1] | Structure (SMILES)
> 14 | <1% | CCN(C(=O)C1CCCCC1)C1CCCCC1 [FB-2]
> 14 | <1% | O=C(C1CCCCC1)N(C1CCCCC1)C1CCCCC1 [FB-6]
> 14 | <1% | OC(c1ccccc1)(c1ccccc1)c1ccccc1 [D-7]
> 14 | <1% | CN(C(=O)c1ccccc1)c1ccccc1 [FA-1]
> 14 | <1% | CCN(CC)S(=O)(=O)c1ccc(C)cc1 [A-42]

— US9091804B2, “Polymer film, and optically-compensatory film, polarizer and liquid-crystal display device comprising the same” (FUJIFILM Corporation, priority 2004, dated 2015)
